In patent US6150385A, “1,3,4-thiadiazoles useful for the treatment of CMV infections” (Pharmacia & Upjohn Company, priority 1999, dated 2000) one finds inhibition data, which are given here for 39 molecules.

The structures appear in SMILES notation.

The experiment deals with T1, HCMV polymerase (Human cytomegalovirus, UniProt P08546).
T1 construct: made in house; host or cells: SF-9 insect cells infected with recombinant baculovirus
T1 sequence (P08546 whole entry): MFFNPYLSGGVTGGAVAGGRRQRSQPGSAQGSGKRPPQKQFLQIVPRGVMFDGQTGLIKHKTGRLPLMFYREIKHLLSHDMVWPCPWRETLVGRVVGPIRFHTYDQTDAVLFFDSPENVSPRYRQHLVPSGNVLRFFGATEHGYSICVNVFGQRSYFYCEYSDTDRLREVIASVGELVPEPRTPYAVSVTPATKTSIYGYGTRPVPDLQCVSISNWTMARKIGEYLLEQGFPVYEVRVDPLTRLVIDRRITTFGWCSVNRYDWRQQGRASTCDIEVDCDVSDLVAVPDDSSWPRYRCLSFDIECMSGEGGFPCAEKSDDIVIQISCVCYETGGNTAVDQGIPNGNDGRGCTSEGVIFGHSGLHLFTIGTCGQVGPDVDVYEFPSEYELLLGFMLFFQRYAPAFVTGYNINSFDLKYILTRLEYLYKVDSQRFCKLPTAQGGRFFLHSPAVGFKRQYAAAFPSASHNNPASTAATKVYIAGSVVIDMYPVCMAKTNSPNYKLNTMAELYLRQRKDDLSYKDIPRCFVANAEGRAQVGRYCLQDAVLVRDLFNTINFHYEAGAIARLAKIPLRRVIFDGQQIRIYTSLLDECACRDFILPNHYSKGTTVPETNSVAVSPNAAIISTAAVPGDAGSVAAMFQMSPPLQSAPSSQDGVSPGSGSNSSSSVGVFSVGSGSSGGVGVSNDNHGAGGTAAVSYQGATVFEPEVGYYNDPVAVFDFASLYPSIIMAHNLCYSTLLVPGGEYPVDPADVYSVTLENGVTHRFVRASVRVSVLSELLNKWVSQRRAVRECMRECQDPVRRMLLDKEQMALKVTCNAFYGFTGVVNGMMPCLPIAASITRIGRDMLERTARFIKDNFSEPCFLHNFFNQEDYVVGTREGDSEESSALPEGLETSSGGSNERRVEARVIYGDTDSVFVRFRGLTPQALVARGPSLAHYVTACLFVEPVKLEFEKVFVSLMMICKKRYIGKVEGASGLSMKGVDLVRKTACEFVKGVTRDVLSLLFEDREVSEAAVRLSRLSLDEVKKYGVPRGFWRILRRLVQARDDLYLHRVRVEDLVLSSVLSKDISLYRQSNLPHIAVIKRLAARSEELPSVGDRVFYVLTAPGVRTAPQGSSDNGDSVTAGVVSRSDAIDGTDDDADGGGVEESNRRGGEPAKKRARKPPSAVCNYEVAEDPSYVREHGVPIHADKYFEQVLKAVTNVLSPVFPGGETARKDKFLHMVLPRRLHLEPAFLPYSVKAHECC
In words: HCMV polymerase assay (scintillation proximity assay). As to conditions: percentage of inhibition at 25 μM concentration in CMV polymerase assay. Format: biochemical. The gist of the method:
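Values are percent inhibition at 25 μM, measured by scintillation proximity after capture of biotinylated poly(dA)-oligo(dT) (6 nM) extended with 90 nM 3H-dTTP. Recombinant SF-9-derived enzyme reacted 30 min at 25 or 37 °C in HEPES pH 7.5/KCl/MgCl2/BSA buffer, ±2 mM CHAPS, before EDTA termination.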
Background: SPA uses beads or plates that emit light when radiolabelled molecules are held near them.
As a reminder, the inhibition is the relative decrease from the control value, in per cent. Read a low inhibition as a weak effect. On to `O=C(Nc1nnc(NCCCN2CCCC2=O)s1)c1cc2ccccc2s1` [compound 150, N-(5-{[3-(2-oxo-1-pyrrolidinyl)propyl]amino}-1,3,4-thiadiazol-2-yl)-1-benzothiophene-2-carboxamide], for which the inhibition at 25 µM worked out at 54.5%.
In turn, `O=C(Nc1nnc(NCCCN2CCCC2=O)s1)c1ccc(F)cc1F` [compound 427, 2,4-difluoro-N-(5-{[3-(2-oxo-1-pyrrolidinyl)propyl]amino}-1,3,4-thiadiazol-2-yl)benzamide] came in with an inhibition at 25 µM of 23.4%.
`O=C(Nc1nnc(NCc2ccco2)s1)c1ccc(Cl)c(Cl)c1` [compound 247, 3,4-dichloro-N-{5-[(2-furylmethyl)amino]-1,3,4-thiadiazol-2-yl}benzamide] registered an inhibition at 25 µM of 40.9%.
In turn, `CCCCCCCC/C=C/CCCCCCCC(=O)Nc1nnc(NCCCCCCCCCCC)s1` [compound 51, (E)-N-[5-(undecylamino)-1,3,4-thiadiazol-2-yl]-9-octadecenamide] returned an inhibition at 25 µM of 79.5%.
On to `O=C(Nc1nnc(NC2CCN(Cc3ccccc3)CC2)s1)c1ccc(Br)cc1` [compound 455, N-{5-[(1-benzyl-4-piperidinyl)amino]-1,3,4-thiadiazol-2-yl}-4-bromobenzamide], for which the inhibition at 25 µM came out at 20.8%.
In turn, `O=C(Nc1nnc(NCc2ccc3c(c2)OCO3)s1)c1cc(F)cc(F)c1` [compound 372, N-{5-[(1,3-benzodioxol-5-ylmethyl)amino]-1,3,4-thiadiazol-2-yl}-3,5-difluorobenzamide] yielded an inhibition at 25 µM of 28.1%.
Regarding `O=C(Nc1nnc(NCc2ccccn2)s1)c1c(Cl)cccc1Cl` [compound 241, 2,6-dichloro-N-{5-[(2-pyridinylmethyl)amino]-1,3,4-thiadiazol-2-yl}benzamide], the inhibition at 25 µM amounted to 41.3%.
With `O=C(/C=C/c1ccccc1Cl)Nc1nnc(NCCCCc2ccccc2)s1` [compound 357, (E)-3-(2-chlorophenyl)-N-{5-[(4-phenylbutyl)amino]-1,3,4-thiadiazol-2-yl}-2-propenamide], the inhibition at 25 µM came to 29.4%.
In turn, `O=C(/C=C/c1ccccc1Cl)Nc1nnc(NCC(c2ccccc2)c2ccccc2)s1` [compound 154, (E)-3-(2-chlorophenyl)-N-{5-[(2,2-diphenylethyl)amino]-1,3,4-thiadiazol-2-yl}-2-propenamide] had an inhibition at 25 µM of 53.6%.
On to `O=C(Nc1nnc(NCCNc2ccccc2)s1)c1ccc(Br)cc1` [compound 434, N-{5-[(2-anilioethyl)amino]-1,3,4-thiadiazol-2-yl}-4-bromobenzamide], for which at 25 µM the inhibition was 22.8%.
With `O=C(Nc1nnc(NCc2cccs2)s1)c1c(Cl)cccc1Cl` [compound 118, 2,6-dichloro-N-{5-[(2-thienylmetyl)amino]-1,3,4-thiadiazol-2-yl}benzamide] the figure was 61.2%; with `O=C(Nc1nnc(NCCc2c[nH]c3ccccc23)s1)c1ccc(Br)cc1` [compound 351, 4-bromo-N-(5-{[2-(1H-indol-3-yl)ethyl]amino}-1,3,4-thiadiazol-2-yl)benzamide], 30.3%; with `O=C(Nc1nnc(NCCc2ccccc2)s1)c1ccc([N+](=O)[O-])o1` [compound 282, 5-nitro-N-[5-(phenethylamino)-1,3,4-thiadiazol-2-yl]-2-furamide], 37.1%.
With `O=C(Nc1nnc(NC2CCc3ccccc32)s1)c1ccc2c(c1)C(=O)OC2=O` (stereo not drawn) [compound 40, N-[5-(2,3-dihydro-1H-inden-1-ylamino)-1,3,4-thiadiazol-2-yl]-1,3-dioxo-1,3-dihydro-2-benzofuran-5-carboxamide], the inhibition at 25 µM came out at 86.3%.
Next, `CCOc1ccc2ccccc2c1C(=O)Nc1nnc(NCc2ccc3c(c2)OCO3)s1` [compound 43, N-{5-[(1,3-benzodioxol-5-ylmethyl)amino]-1,3,4-thiadiazol-2-yl}-2-ethoxy-1-naphthamide]: 83.9%; `CCOc1ccc2ccccc2c1C(=O)Nc1nnc(NCc2cccc3ccccc23)s1` [compound 136, 2-ethoxy-N-{5-[(1-naphthylmethyl)amino]-1,3,4-thiadiazol-2-yl}-1-naphthamide]: 56.5%.
`N#Cc1ccc(C(=O)Nc2nnc(NCc3ccc(Cl)c(Cl)c3)s2)cc1` [compound 140, 4-cyano-N-{5-[(3,4-dichlorobenzyl)amino]-1,3,4-thiadiazol-2-yl}benzamide]: testing at 25 µM gave an inhibition of 56.2%.
`O=C(Nc1nnc(NCc2ccc(F)cc2)s1)c1cc(F)cc(F)c1` [compound 451, 3,5-difluoro-N-{5-[(4-fluorobenzyl)amino]-1,3,4-thiadiazol-2-yl}benzamide] yielded an inhibition at 25 µM of 21.4%.
As to `O=C(Nc1nnc(NC2CCCCCC2)s1)c1ccc(Cl)c(Cl)c1` [compound 418, 3,4-dichloro-N-[5-(cycloheptylamino)-1,3,4-thiadiazol-2-yl]benzamide], the inhibition at 25 µM was found to be 24.4%.
With `COc1ccccc1C(=O)Nc1nnc(NCCc2ccccc2)s1` [compound 327, 2-methoxy-N-[5-(phenethylamino)-1,3,4-thiadiazol-2-yl]benzamide] the figure was 32.5%; with `CN1CCN(CCCNc2nnc(NC(=O)c3ccc(I)cc3)s2)CC1` [compound 467], 20.1%.
Molecule `O=C(Nc1nnc(NC2CCCCCC2)s1)c1cc(F)cc(F)c1` [compound 300, N-[5-(cycloheptylamino)-1,3,4-thiadiazol-2-yl]-3,5-difluorobenzamide] registered an inhibition at 25 µM of 34.9%.
For `O=C(Nc1nnc(NCCc2ccccc2)s1)c1c(Cl)cccc1Cl` [compound 377, 2,6-dichloro-N-[5-(phenethylamino)-1,3,4-thiadiazol-2-yl]benzamide], the inhibition at 25 µM is 27.8%.
Consider `CCOc1ccc2ccccc2c1C(=O)Nc1nnc(NCCC(=O)OC(C)(C)C)s1` [compound 293, tert-butyl 3-[(5-{[(2-ethoxy-1-naphthyl)carbonyl]amino}-1,3,4-thiadiazol-2-yl)amino]propanoate], for which 25 µM produced 35.5% inhibition.
`O=C(Nc1nnc(NCCNc2ccccc2)s1)c1cccc([N+](=O)[O-])c1` [compound 291, N-{5-[(2-anilinoethyl)amino]-1,3,4-thiadiazol-2-yl}-3-nitrobenzamide]: the inhibition at 25 µM worked out at 35.7%.
`NS(=O)(=O)c1ccc(CNc2nnc(NC(=O)/C=C/c3ccccc3Cl)s2)cc1` [compound 88, (E)-N-(5-{[4-(aminosulfonyl)benzyl]amino}-1,3,4-thiadiazol-2-yl)-3-(2-chlorophenyl)-2-propenamide] showed an inhibition at 25 µM of 66.5%.
With `O=C(Nc1nnc(NCc2cccnc2)s1)c1ccc(Cl)c(Cl)c1` [compound 417, 3,4-dichloro-N-{5-[(3-pyridinylmethyl)amino]-1,3,4-thiadiazol-2-yl}benzamide] the figure was 24.4%; with `CCCCCCCC/C=C/CCCCCCCC(=O)Nc1nnc(NCC2CC2)s1` [compound 113, (E)-N-{5-[(cyclopropylmethyl)amino]-1,3,4-thiadiazol-2-yl}-9-octadecenamide], 62.2%; with `O=C(Nc1nnc(NCc2ccco2)s1)c1cc2ccccc2s1` [compound 349, N-{5-[(2-furylmethyl)amino]-1,3,4-thiadiazol-2-yl}-1-benzothiophene-2-carboxamide], 30.3%.
Consider `O=C(/C=C/c1ccccc1Cl)Nc1nnc(NCc2ccco2)s1` [compound 251, (E)-3-(2-chlorophenyl)-N-{5-[(2-furylmethyl)amino]-1,3,4-thiadiazol-2-yl}-2-propenamide], for which the inhibition at 25 µM turned out to be 40.3%.
`N#Cc1ccc(C(=O)Nc2nnc(NCCc3cccs3)s2)cc1` [compound 102, 4-cyano-N-(5-{[2-(2-thienyl)ethyl]amino}-1,3,4-thiadiazol-2-yl)benzamide] returned an inhibition at 25 µM of 64.9%.
In the case of `CCCCCCCC/C=C/CCCCCCCC(=O)Nc1nnc(NC2CCC2)s1` [compound 199, (E)-N-[5-(cyclobutylamino)-1,3,4-thiadiazol-2-yl]-9-octadecenamide], the inhibition at 25 µM came out at 46%.
The molecule `CC(C)c1cc(C(C)C)c(C(=O)Nc2nnc(NCc3cccnc3)s2)c(C(C)C)c1` [compound 399, 2,4,6-triisopropyl-N-{5-[(3-pyridinylmethyl)amino]-1,3,4-thiadiazol-2-yl}benzamide] had an inhibition at 25 µM of 25.8%.
Turning to `CCOc1ccc2ccccc2c1C(=O)Nc1nnc(NC2CC2)s1` [compound 227, N-[5-(cyclopropylamino)-1,3,4-thiadiazol-2-yl]-2-ethoxy-1-naphthamide], the inhibition at 25 µM turned out to be 42.8%.
Molecule `CCCCC(CC)CNc1nnc(NC(=O)c2ccc(Cl)c(Cl)c2)s1` (stereo not drawn) [compound 461, 3,4-dichloro-N-{5-[(2-ethylhexyl)amino]-1,3,4-thiadiazol-2-yl}benzamide] displayed an inhibition at 25 µM of 20.6%.
The molecule `CCSCCNc1nnc(NC(=O)c2ccc(I)cc2)s1` [compound 148, N-(5-{[2-(ethylsulfanyl)ethyl]amino}-1,3,4-thiadiazol-2-yl)-4-iodobenzamide] gave an inhibition at 25 µM of 54.6%.
On to `CCOc1ccc2ccccc2c1C(=O)Nc1nnc(NCc2ccccn2)s1` [compound 70, 2-ethoxy-N-{5-[(2-pyridinylmethyl)amino]-1,3,4-thiadiazol-2-yl}-1-naphthamide], for which the inhibition at 25 µM was found to be 70.4%.
As for `O=C(Nc1nnc(NCCCNC2CCCCC2)s1)c1ccc(Br)cc1` [compound 159, 4-bromo-N-(5-{[3-(cyclohexylamino)propyl]amino}-1,3,4-thiadiazol-2-yl)benzamide], testing at 25 µM gave an inhibition of 52.8%.
As for `CCCCCCCC/C=C/CCCCCCCC(=O)Nc1nnc(NCCSCC)s1` [compound 129, (E)-N-(5-{[2-(ethylsulfanyl)ethyl]amino}1,3,4-thiadiazol-2-yl)-9-octadecenamide], the inhibition at 25 µM was 58.3%.
